The results in this text go back to US9428508B2, “2,4-diamino-6,7-dihydro-5H-pyrrolo[2,3]pyrimidine derivatives as FAK/Pyk2 inhibitors” (Centaurus BioPharma Co., Ltd., priority 2011, dated 2016).

One assay addresses PYK2 (Homo sapiens (Human), UniProt Q14289). The experiment in a line: Biochemical assay for PYK2 activity (LANCE TR-FRET, ULight-poly Glu,Ala,Tyr substrate). Particulars: GST-tagged PYK2, 40 min reaction. The protocol: (§1) Biochemical Assay for FAK/Pyk2 Activity
(§2) GST-tagged FAK was purchased from Invitrogen (PV3832). GST-tagged PYK2 was purchased from Invitrogen (PV4567). The activity of FAK/PYK2 was measured by monitoring the phosphorylation of a fluorophore labeled ULight-poly Glu, Ala, Tyr (1:1:1) peptide substrate from Perkin Elmer (TRF0101) in the presence of ATP. The phosphorylated tyrosine residue was recognized by a LANCE Europium chelate labeled anti-phosphotyrosine (PY20) antibody from Perkin Elmer (AD0066). This brought the fluorophore and europium chelate in close proximity ([…]) that upon excitation at 320 nm by an Envision (PerkinElmer), energy can be transferred from the donor Europium chelate to the acceptor fluorophore. […] The strength of the signal was, therefore, directly proportional to the FAK/PYK2 activity.
(§3) To measure inhibitory activity of FAK/PYK2 inhibitors, compounds were first prepare as a 1 mM stock in 100% DMSO and 3-fold serial dilution was performed in a 96-well plate (Corning, 3897) to generate 12 different concentration of 100× stock. A 5 μl of 100× stock of each concentration was added to wells containing 95 μl of 1× reaction buffer (40 mM Tris, pH7.5, […], 1 mM DTT and 1 mM CHAPS) to generate 5× stock. Then 2 μl of 5× stock of each concentration was added to a 384 wells-OptiPlate (PerkinElmer, 6007299).
For PYK2, 5 μl of 2 nM PYK2 and 1.5 μl of 666 nM ULight-poly Glu, Ala, Tyr (1:1:1) peptide substrate, prepared in above reaction buffer, were added to each well. The reaction was initiated by adding 1.5 μl of 46.6 μM ATP. The reaction was allowed to proceed for 40 min before being quenched with 5 μl of 40 mM EDTA stop buffer prepared in 1×LANCE detection buffer (PerkinElmer, CR97-100).
(§4) Upon quenching of the reaction, 5 μl of 8 nM anti-phosphotyrosine antibody was added to each well and incubated for 60 minutes. The plate was measured using an Envision (PerkinElmer) based on the theory mentioned above.

The target in a further assay is FAK (Homo sapiens (Human), UniProt Q05397). The experiment in a line: Biochemical assay for FAK activity (LANCE TR-FRET, ULight-poly Glu,Ala,Tyr substrate). To be noted: GST-tagged FAK, 120 min reaction. The protocol:
as §1, §2, §3
For FAK, 4 μl of 2.5 nM FAK, 1 ul of 8 μg/μl BSA and 1.5 μl of 666 nM ULight-poly Glu, Ala, Tyr (1:1:1) peptide substrate, prepared in above reaction buffer, were added to each well. The reaction was initiated by adding 1.5 μl of 33.3 μM ATP. The reaction was allowed to proceed for 120 min before being quenched with 5 μl of 40 mM EDTA stop buffer prepared in 1×LANCE detection buffer (PerkinElmer, CR97-100).
as §4

Chain of PYK2 (Q14289 whole entry): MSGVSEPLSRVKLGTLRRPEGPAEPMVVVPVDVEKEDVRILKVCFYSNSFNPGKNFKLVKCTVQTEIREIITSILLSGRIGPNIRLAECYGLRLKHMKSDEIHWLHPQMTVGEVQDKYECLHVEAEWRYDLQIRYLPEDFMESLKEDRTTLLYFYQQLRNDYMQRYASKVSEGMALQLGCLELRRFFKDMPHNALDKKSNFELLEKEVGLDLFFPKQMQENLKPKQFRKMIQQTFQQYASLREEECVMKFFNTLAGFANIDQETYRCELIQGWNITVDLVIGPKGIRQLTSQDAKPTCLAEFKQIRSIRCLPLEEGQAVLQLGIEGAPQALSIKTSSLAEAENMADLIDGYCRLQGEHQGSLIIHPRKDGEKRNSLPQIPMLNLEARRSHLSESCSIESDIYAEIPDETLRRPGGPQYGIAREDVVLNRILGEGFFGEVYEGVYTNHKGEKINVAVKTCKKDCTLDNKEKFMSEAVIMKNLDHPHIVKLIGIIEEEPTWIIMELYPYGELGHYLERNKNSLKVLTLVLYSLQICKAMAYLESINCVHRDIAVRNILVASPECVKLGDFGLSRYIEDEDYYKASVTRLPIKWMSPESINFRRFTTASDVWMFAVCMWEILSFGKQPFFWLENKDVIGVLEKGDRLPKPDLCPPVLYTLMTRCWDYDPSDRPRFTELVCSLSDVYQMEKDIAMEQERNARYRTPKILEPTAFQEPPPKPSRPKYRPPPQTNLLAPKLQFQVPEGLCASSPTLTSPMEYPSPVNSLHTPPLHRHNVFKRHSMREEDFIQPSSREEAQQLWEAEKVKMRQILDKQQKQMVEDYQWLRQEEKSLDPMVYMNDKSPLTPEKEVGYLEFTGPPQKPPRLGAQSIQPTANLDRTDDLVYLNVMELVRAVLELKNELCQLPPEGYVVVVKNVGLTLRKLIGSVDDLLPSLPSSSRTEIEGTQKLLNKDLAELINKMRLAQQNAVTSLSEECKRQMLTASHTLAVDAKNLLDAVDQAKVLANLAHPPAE
Chain of FAK (Q05397 whole entry): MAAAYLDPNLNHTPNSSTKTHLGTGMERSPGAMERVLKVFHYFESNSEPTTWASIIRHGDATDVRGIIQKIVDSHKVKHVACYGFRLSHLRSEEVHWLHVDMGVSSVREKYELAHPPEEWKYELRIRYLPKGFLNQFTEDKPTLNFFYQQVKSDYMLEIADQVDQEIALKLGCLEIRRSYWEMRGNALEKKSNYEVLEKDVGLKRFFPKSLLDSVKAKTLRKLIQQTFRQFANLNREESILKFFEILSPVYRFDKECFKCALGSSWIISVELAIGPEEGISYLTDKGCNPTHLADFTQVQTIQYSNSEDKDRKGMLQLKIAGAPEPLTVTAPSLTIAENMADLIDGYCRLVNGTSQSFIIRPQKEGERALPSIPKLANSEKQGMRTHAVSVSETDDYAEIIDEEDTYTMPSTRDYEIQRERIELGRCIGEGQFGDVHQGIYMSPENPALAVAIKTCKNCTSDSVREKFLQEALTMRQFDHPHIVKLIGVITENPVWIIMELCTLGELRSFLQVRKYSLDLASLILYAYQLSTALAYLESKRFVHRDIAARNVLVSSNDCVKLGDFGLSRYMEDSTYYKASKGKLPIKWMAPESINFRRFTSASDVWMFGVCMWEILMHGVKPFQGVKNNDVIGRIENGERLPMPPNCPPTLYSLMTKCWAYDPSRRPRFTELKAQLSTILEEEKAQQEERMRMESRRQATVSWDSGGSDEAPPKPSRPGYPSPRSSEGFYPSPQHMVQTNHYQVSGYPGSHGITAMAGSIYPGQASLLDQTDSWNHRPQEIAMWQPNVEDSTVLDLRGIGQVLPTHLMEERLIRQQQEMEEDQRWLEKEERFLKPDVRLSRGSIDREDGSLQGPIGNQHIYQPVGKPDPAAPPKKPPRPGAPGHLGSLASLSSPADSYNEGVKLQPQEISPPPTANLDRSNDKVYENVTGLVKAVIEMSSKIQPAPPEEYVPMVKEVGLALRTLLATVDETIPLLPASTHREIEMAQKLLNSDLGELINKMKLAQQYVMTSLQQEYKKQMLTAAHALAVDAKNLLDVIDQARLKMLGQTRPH

For `COc1cc(N2CCOCC2)ccc1Nc1nc2c(c(Nc3ccccc3S(=O)(=O)NCCN(C)C)n1)CCN2` [Example 49, N-(2-(dimethylamino)ethyl)-2-(2-(2-methoxy-4-morpholinophenylamino)-6,7-dihydro-5H-pyrrolo[2,3-d]pyrimidin-4-ylamino)benzenesulfonamide], the IC50 against PYK2 and against FAK was less than 500 nM in each case.

Regarding `COc1cc(N2CCOCC2)ccc1Nc1nc2c(c(Nc3ccccc3S(=O)(=O)NC3CCC3)n1)C1(CC1)CN2` [Example 150, N-cyclobutyl-2-(2′-(2-methoxy-4-morpholinophenylamino)-6′,7′-dihydrospiro[cyclopropane-1,5′-pyrrolo[2,3-d]pyrimidine]-4′-ylamino)benzenesulfonamide], the IC50 against PYK2 and against FAK was less than 20 nM in each case.

Regarding `CNS(=O)(=O)c1ccccc1Nc1nc(Nc2ccc(N3CCOCC3)cc2OC)nc2c1CCN2` [Example 4, 2-(2-(2-methoxy-4-morpholinophenylamino)-6,7-dihydro-5H-pyrrolo[2,3-d]pyrimidin-4-ylamino)-N-methylbenzenesulfonamide], the results for the IC50 on PYK2 and against FAK were less than 50 nM and less than 20 nM, respectively.

On to `CNC(=O)c1ccc2c(c1Nc1nc(Nc3ccc(N4CCOCC4)cc3OC)nc3c1CCN3)OCO2` [Example 2, 4-(2-(2-methoxy-4-morpholinophenylamino)-6,7-dihydro-5H-pyrrolo[2,3-d]pyrimidin-4-ylamino)-N-methylbenzo[d][1,3]dioxole-5-carboxamide], for which the IC50 at PYK2 and against FAK was greater than 1000 nM each time.

On to `COc1cc(N2CCOCC2)ccc1Nc1nc2c(c(Nc3ccccc3N(C)S(C)(=O)=O)n1)C1(CC1)CN2` [Example 156, N-(2-(2′-(2-methoxy-4-morpholinophenylamino)-6′,7′-dihydrospiro[cyclopropane-1,5′-pyrrolo[2,3-d]pyrimidine]-4′-ylamino)phenyl)-N-methylmethanesulfonamide], for which the IC50 against PYK2 and against FAK was less than 20 nM in each case.

As for `COc1cc(N2CCOCC2)ccc1Nc1nc2c(c(Nc3ccccc3S(=O)(=O)N(C)C)n1)C1(CC1)CN2` [Example 151, 2-(2′-(2-methoxy-4-morpholinophenylamino)-6′,7′-dihydrospiro[cyclopropane-1,5′-pyrrolo[2,3-d]pyrimidine]-4′-ylamino)-N,N-dimethylbenzenesulfonamide], the IC50 against PYK2 and against FAK was less than 20 nM throughout.

Consider `Cc1csc(Nc2nc3c(c(Nc4ccccc4S(=O)(=O)NC(C)C)n2)CCN3)n1` [Example 91, N-isopropyl-2-(2-(4-methylthiazol-2-ylamino)-6,7-dihydro-5H-pyrrolo[2,3-d]pyrimidin-4-ylamino)benzenesulfonamide], for which the figures for the half-inhibitory concentration (IC50) against PYK2 and against FAK were less than 1000 nM and greater than 1000 nM, respectively.

Take `COc1cc(N2CCOCC2)ccc1Nc1nc2c(c(Nc3ccccc3S(=O)(=O)NC3CCCC3)n1)C(C)CN2` (racemic) [Example 28, (±)-N-cyclopentyl-2-(2-(2-methoxy-4-morpholinophenylamino)-5-methyl-6,7-dihydro-5H-pyrrolo[2,3-d]pyrimidin-4-ylamino)benzenesulfonamide]: the values for the IC50 at PYK2 and on FAK were less than 50 nM and less than 300 nM, respectively.

`COc1cc(N2CCOCC2)ccc1Nc1nc2c(c(Nc3ccccc3S(=O)(=O)NC3CCC3)n1)CCN2` [Example 6, N-cyclobutyl-2-(2-(2-methoxy-4-morpholinophenylamino)-6,7-dihydro-5H-pyrrolo[2,3-d]pyrimidin-4-ylamino)benzenesulfonamide]: the IC50 against PYK2 and against FAK was less than 20 nM each time.

On to `COc1cc(N2CCOCC2)ccc1Nc1nc2c(c(Nc3ccccc3NC(C)=O)n1)C(C)(C)CN2` [Example 124, N-(2-(2-(2-methoxy-4-morpholinophenylamino)-5,5-dimethyl-6,7-dihydro-5H-pyrrolo[2,3-d]pyrimidin-4-ylamino)phenyl)acetamide], for which the half-inhibitory concentration (IC50) against PYK2 and against FAK was less than 200 nM throughout.

In the case of `COCCNS(=O)(=O)c1ccccc1Nc1nc(Nc2ccc(N3CCOCC3)cc2OC)nc2c1C1(CC1)CN2` [Example 141, 2-(2′-(2-methoxy-4-morpholinophenylamino)-6′,7′-dihydrospiro[cyclopropane-1,5′-pyrrolo[2,3-d]pyrimidine]-4′-ylamino)-N-(2-methoxyethyl)benzenesulfonamide], the IC50 against PYK2 and against FAK was less than 20 nM in each case.

`CNC(=O)c1ccccc1Nc1nc(Nc2ccc(N3CCOCC3)cc2OC)nc2c1CCN2` [Example 1, 2-(2-(2-methoxy-4-morpholinophenylamino)-6,7-dihydro-5H-pyrrolo[2,3-d]pyrimidin-4-ylamino)-N-methylbenzamide]: the IC50 on PYK2 and against FAK was less than 100 nM throughout.

On to `CNC(=O)c1ccccc1Nc1nc(Nc2ccc(N3CCOCC3)cc2)nc2c1CCN2` [Example 158, N-methyl-2-(2-(4-morpholinophenylamino)-6,7-dihydro-5H-pyrrolo[2,3-d]pyrimidin-4-ylamino)benzamide], for which the IC50 against PYK2 and at FAK was less than 100 nM throughout.

For `CCCCNS(=O)(=O)c1ccccc1Nc1nc(Nc2ccc(N3CCOCC3)cc2OC)nc2c1C(C)(C)CN2` [Example 110, N-butyl-2-(2-(2-methoxy-4-morpholinophenylamino)-5,5-dimethyl-6,7-dihydro-5H-pyrrolo[2,3-d]pyrimidin-4-ylamino)benzenesulfonamide], the IC50 on PYK2 and against FAK was less than 20 nM each time.

Regarding `COc1cc(N2CCOCC2)ccc1Nc1nc2c(c(NCc3ccccc3N(C)S(C)(=O)=O)n1)CCN2` [Example 11, N-(2-((2-(2-methoxy-4-morpholinophenylamino)-6,7-dihydro-5H-pyrrolo[2,3-d]pyrimidin-4-ylamino)methyl)phenyl)-N-methylmethanesulfonamide], the figures for the IC50 against PYK2 and against FAK were greater than 2000 nM and less than 100 nM, respectively.

On to `CNC(=O)c1ccccc1Nc1nc(Nc2ccc(N3CCOCC3)c3c2OCCO3)nc2c1CCN2` [Example 16, N-methyl-2-(2-(8-morpholino-2,3-dihydrobenzo[b][1,4]dioxin-5-ylamino)-6,7-dihydro-5H-pyrrolo[2,3-d]pyrimidin-4-ylamino)benzamide], for which the figures for the IC50 at PYK2 and against FAK were less than 200 nM and less than 500 nM, respectively.

In the case of `CCCNS(=O)(=O)c1ccccc1Nc1nc(Nc2ccc(N3CCOCC3)cc2OC)nc2c1C(C)CN2` (racemic) [Example 26, (±)-2-(2-(2-methoxy-4-morpholinophenylamino)-5-methyl-6,7-dihydro-5H-pyrrolo[2,3-d]pyrimidin-4-ylamino)-N-propylbenzenesulfonamide], the IC50 against PYK2 and against FAK was less than 20 nM in each case.

For the molecule `COc1cc(N2CCOCC2)ccc1Nc1nc2c(c(Nc3ccccc3S(=O)(=O)NC(C)C)n1)C(C)CN2` (stereo not drawn) [Example 101, N-isopropyl-2-(2-(2-methoxy-4-morpholinophenylamino)-5-methyl-6,7-dihydro-5H-pyrrolo[2,3-d]pyrimidin-4-ylamino)benzenesulfonamide], the IC50 at PYK2 and on FAK was less than 20 nM in each case.

For the molecule `COc1cc(N2CCOCC2)ccc1Nc1nc2c(c(Nc3ccccc3N(C)S(C)(=O)=O)n1)C(C)CN2` (racemic) [Example 31, (±)-N-(2-(2-(2-methoxy-4-morpholinophenylamino)-5-methyl-6,7-dihydro-5H-pyrrolo[2,3-d]pyrimidin-4-ylamino)phenyl)-N-methylmethanesulfonamide], the IC50 was less than 20 nM at PYK2 and less than 30 nM against FAK.

Take `COc1cc(N2CCOCC2)ccc1Nc1nc2c(c(Nc3ccccc3C=O)n1)CCN2` [Example 161, 2-(2-(2-methoxy-4-morpholinophenylamino)-6,7-dihydro-5H-pyrrolo[2,3-d]pyrimidin-4-ylamino)benzaldehyde]: the IC50 at PYK2 and against FAK was less than 1000 nM throughout.

Take `COc1cc(N2CCOCC2)ccc1Nc1nc2c(c(Nc3ccccc3S(=O)(=O)NCC(C)C)n1)C(C)(C)CN2` [Example 107, N-isobutyl-2-(2-(2-methoxy-4-morpholinophenylamino)-5,5-dimethyl-6,7-dihydro-5H-pyrrolo[2,3-d]pyrimidin-4-ylamino)benzenesulfonamide]: the IC50 on PYK2 and on FAK was less than 20 nM each time.
